Experimental data: ChEMBL document CHEMBL3808392, “Design, synthesis and biological evaluation of 5-fluorouracil-derived benzimidazoles as novel type of potential antimicrobial agents” (2016)
Values after ≈ are worked out from the molar mass of the structure shown. Active and inactive are the calls of the source. No cut-off for these calls is given here.

Key:
Staphylococcus aureus [1] = assay: Antimicrobial activity against Staphylococcus aureus ATCC 25923 after 24 hrs by microbroth dilution method; format: functional; settings: ATCC 25923, 24 h
Aspergillus flavus = assay: Antimicrobial activity against Aspergillus flavus ATCC 204304 after 24 hrs by microbroth dilution method; format: functional; settings: ATCC 204304, 24 h
Bacillus spizizenii = assay: Antimicrobial activity against Bacillus subtilis ATCC 6633 after 24 hrs by microbroth dilution method; format: functional; settings: ATCC 6633, 24 h
Saccharomyces cerevisiae [2] = assay: Antimicrobial activity against Saccharomyces cerevisiae after 24 hrs by microbroth dilution method; format: functional
Escherichia coli [3] = assay: Antimicrobial activity against Escherichia coli JM109 after 24 hrs by microbroth dilution method; format: functional; settings: JM109, 24 h
Candida albicans = assay: Antimicrobial activity against Candida albicans ATCC 10231 after 24 hrs by microbroth dilution method; format: functional; settings: ATCC 10231, 24 h
[4] = Antimicrobial activity against Bacillus proteus ATCC 13315 after 24 hrs by microbroth dilution method; format: functional; settings: ATCC 13315, 24 h
Staphylococcus aureus [5] = assay: Antimicrobial activity against methicillin-resistant Staphylococcus aureus N315 after 24 hrs by microbroth dilution method; format: functional; settings: N315, 24 h
Candida = assay: Antimicrobial activity against Candida mycoderma ATCC 9888 after 24 hrs by microbroth dilution method; format: functional; settings: ATCC 9888, 24 h
Salmonella typhi = assay: Antimicrobial activity against Bacillus typhi after 24 hrs by microbroth dilution method; format: functional, Salmonella enterica subsp. enterica serovar Typhi; settings: Salmonella enterica
Escherichia coli [6] = assay: Antimicrobial activity against Escherichia coli DH52 after 24 hrs by microbroth dilution method; format: functional; settings: DH52, 24 h
Micrococcus luteus = assay: Antimicrobial activity against Micrococcus luteus ATCC 4698 after 24 hrs by microbroth dilution method; format: functional; settings: ATCC 4698, 24 h
Escherichia coli [7] = assay: Potency index, ratio of chloromycin MIC to compound MIC for antimicrobial activity against Escherichia coli DH52; format: functional
Calf thymus DNA [8] = assay: Binding affinity to calf thymus DNA assessed as compound-DNA complex formation by fluorescence analysis in presence of quencher potassium iodide; format: nucleic-acid assay; settings: Bos taurus
Saccharomyces cerevisiae [9] = assay: Potency index, ratio of fluconazole MIC to compound MIC for antimicrobial activity against Saccharomyces cerevisiae; format: functional
Staphylococcus aureus [10] = assay: Potency index, ratio of norfloxacin MIC to compound MIC for antimicrobial activity against methicillin-resistant Staphylococcus aureus N315; format: functional
Staphylococcus aureus [11] = assay: Potency index, ratio of chloromycin MIC to compound MIC for antimicrobial activity against methicillin-resistant Staphylococcus aureus N315; format: functional
Calf thymus DNA [12] = assay: Competitive binding affinity to calf thymus DNA assessed as compound-DNA complex formation at 0.74 to 2.18x10'-5 mol/l by UV-visible spectroscopy in presence of neutral red dye; format: nucleic-acid assay; settings: Bos taurus
Calf thymus DNA [13] = assay: Binding affinity to calf thymus DNA assessed as compound-DNA complex formation by UV-visible spectroscopy; format: nucleic-acid assay; settings: Bos taurus
Calf thymus DNA [14] = assay: Binding affinity to calf thymus DNA assessed as compound-DNA complex formation at 4.87x10'-5 mol/l by fluorescence analysis; format: nucleic-acid assay; settings: Bos taurus

Row | SMILES | MIC (Staphylococcus aureus [1]) [µg/mL] | MIC (Aspergillus flavus) [µg/mL] | MIC (Bacillus spizizenii) [µg/mL] | MIC (Saccharomyces cerevisiae [2]) [µg/mL] | MIC (Escherichia coli [3]) [µg/mL] | MIC (Candida albicans) [µg/mL] | MIC [4] [µg/mL] | MIC (Staphylococcus aureus [5]) [µg/mL] | MIC (Candida) [µg/mL] | MIC (Salmonella typhi) [µg/mL] | MIC (Escherichia coli [6]) [µg/mL] | MIC (Micrococcus luteus) [µg/mL] | Ratio (Escherichia coli [7]) | KSV (Calf thymus DNA [8]) [L/mol] | Ratio (Saccharomyces cerevisiae [9]) | Ratio (Staphylococcus aureus [10]) | Ratio (Staphylococcus aureus [11]) | Activity (Calf thymus DNA [12]) | K (Calf thymus DNA [13]) [×10⁴ L/mol] | Activity (Calf thymus DNA [14])
1 | O=c1[nH]c(=O)n(Cc2nc3ccccc3[nH]2)cc1F | 128 (≈ 492 µM) | 128 (≈ 492 µM) | 64 (≈ 246 µM) | 64 (≈ 246 µM) | 32 (≈ 123 µM) | 32 (≈ 123 µM) | 16 (≈ 61.5 µM) | 128 (≈ 492 µM) | 64 (≈ 246 µM) | 32 (≈ 123 µM) | 64 (≈ 246 µM) | 64 (≈ 246 µM) | – | – | – | – | – | – | – | –
2 | CCn1c(Cn2cc(F)c(=O)[nH]c2=O)nc2ccccc21 | 16 (≈ 55.5 µM) | 32 (≈ 111 µM) | 64 (≈ 222 µM) | 4 (≈ 13.9 µM) | 64 (≈ 222 µM) | 2 (≈ 6.94 µM) | 32 (≈ 111 µM) | 16 (≈ 55.5 µM) | 16 (≈ 55.5 µM) | 32 (≈ 111 µM) | 8 (≈ 27.8 µM) | 16 (≈ 55.5 µM) | 4 | – | – | – | – | – | – | –
3 | O=c1[nH]c(=O)n(Cc2nc3cc(F)ccc3[nH]2)cc1F | 8 (≈ 28.8 µM) | 128 (≈ 460 µM) | 128 (≈ 460 µM) | 8 (≈ 28.8 µM) | 128 (≈ 460 µM) | 2 (≈ 7.19 µM) | 16 (≈ 57.5 µM) | 16 (≈ 57.5 µM) | 128 (≈ 460 µM) | 32 (≈ 115 µM) | 32 (≈ 115 µM) | 16 (≈ 57.5 µM) | – | – | – | – | – | – | – | –
4 | OC(Cn1cncn1)(Cn1cncn1)c1ccc(F)cc1F [FLUCONAZOLE] | – | 256 (≈ 836 µM) | – | 16 (≈ 52.2 µM) | – | 1 (≈ 3.27 µM) | – | – | 4 (≈ 13.1 µM) | – | – | – | – | – | – | – | – | – | – | –
5 | O=c1c(F)cn(Cc2nc3ccccc3n2Cc2ccccc2F)c(=O)n1Cc1ccccc1F | 16 (≈ 33.6 µM) | > 512 | 128 (≈ 269 µM) | 128 (≈ 269 µM) | 128 (≈ 269 µM) | > 512 | 512 (≈ 1070 µM) | 512 (≈ 1070 µM) | 512 (≈ 1070 µM) | 512 (≈ 1070 µM) | 128 (≈ 269 µM) | 512 (≈ 1070 µM) | – | – | – | – | – | – | – | –
6 | O=c1c(F)cn(Cc2nc3ccccc3n2Cc2cccc(F)c2)c(=O)n1Cc1cccc(F)c1 | 4 (≈ 8.4 µM) | 8 (≈ 16.8 µM) | 16 (≈ 33.6 µM) | 1 (≈ 2.1 µM) | 8 (≈ 16.8 µM) | 32 (≈ 67.2 µM) | 4 (≈ 8.4 µM) | 2 (≈ 4.2 µM) | 32 (≈ 67.2 µM) | 8 (≈ 16.8 µM) | 2 (≈ 4.2 µM) | 64 (≈ 134 µM) | – | 6.45 | 16 | 4 | 8 | Active | 3.89 | Active
7 | COc1ccc(Cn2c(=O)c(F)cn(Cc3nc4ccccc4n3Cc3ccc(OC)cc3)c2=O)cc1 | 128 (≈ 256 µM) | 32 (≈ 63.9 µM) | 64 (≈ 128 µM) | 64 (≈ 128 µM) | 16 (≈ 32 µM) | 64 (≈ 128 µM) | 32 (≈ 63.9 µM) | 32 (≈ 63.9 µM) | 512 (≈ 1020 µM) | 64 (≈ 128 µM) | 128 (≈ 256 µM) | 64 (≈ 128 µM) | – | – | – | – | – | – | – | –
8 | CCCn1c(Cn2cc(F)c(=O)[nH]c2=O)nc2ccccc21 | 16 (≈ 52.9 µM) | 32 (≈ 106 µM) | 16 (≈ 52.9 µM) | 8 (≈ 26.5 µM) | 64 (≈ 212 µM) | 2 (≈ 6.62 µM) | 64 (≈ 212 µM) | 16 (≈ 52.9 µM) | 16 (≈ 52.9 µM) | 64 (≈ 212 µM) | 64 (≈ 212 µM) | 16 (≈ 52.9 µM) | – | – | – | – | – | – | – | –
9 | O=c1c(F)cn(Cc2nc3ccccc3n2Cc2ccccc2Cl)c(=O)n1Cc1ccccc1Cl | > 512 | 512 (≈ 1010 µM) | > 512 | > 512 | > 512 | 512 (≈ 1010 µM) | > 512 | > 512 | 512 (≈ 1010 µM) | 512 (≈ 1010 µM) | > 512 | > 512 | – | – | – | – | – | – | – | –
10 | CCCCCCCCn1c(Cn2cc(F)c(=O)[nH]c2=O)nc2ccccc21 | 512 (≈ 1370 µM) | 32 (≈ 85.9 µM) | 512 (≈ 1370 µM) | 32 (≈ 85.9 µM) | 256 (≈ 687 µM) | 32 (≈ 85.9 µM) | 512 (≈ 1370 µM) | 512 (≈ 1370 µM) | 64 (≈ 172 µM) | 512 (≈ 1370 µM) | 64 (≈ 172 µM) | 512 (≈ 1370 µM) | – | – | – | – | – | – | – | –
11 | CCn1c(=O)c(F)cn(Cc2nc3ccccc3n2CC)c1=O | 32 (≈ 101 µM) | 64 (≈ 202 µM) | 32 (≈ 101 µM) | 32 (≈ 101 µM) | 16 (≈ 50.6 µM) | 64 (≈ 202 µM) | 32 (≈ 101 µM) | 64 (≈ 202 µM) | 32 (≈ 101 µM) | 64 (≈ 202 µM) | 32 (≈ 101 µM) | 32 (≈ 101 µM) | – | – | – | – | – | – | – | –
12 | CCCCCCCCCCCCn1c(Cn2cc(F)c(=O)[nH]c2=O)nc2ccccc21 | > 512 | > 512 | > 512 | 64 (≈ 149 µM) | > 512 | > 512 | > 512 | > 512 | 512 (≈ 1190 µM) | > 512 | > 512 | > 512 | – | – | – | – | – | – | – | –
